# Measured values published in PubChem BioAssay AID687029 (Broad Institute, 2013).
# Tested on: RMG-1 viability, CellTiterGlo ATP luminescence, 96 h
# Experiment: cytotoxicity in PAX8-dependent RMG-1 cells, dose response, cell-based, cherry-pick (AID 687029)
row,Structure (SMILES),AC50
1,O=C(NCc1ccco1)C1CCCN(S(=O)(=O)c2ccc(Br)cc2)C1 (stereo not drawn),< 260 nM
2,O=C1CN(C(=O)Cn2ncc(Cl)c(Cl)c2=O)c2ccccc2N1,< 260 nM
3,CCC(c1nnnn1Cc1ccccc1)N1CCC(n2c(=O)[nH]c3ccccc32)CC1 (stereo not drawn),< 260 nM
4,Cc1cc(C2=NNC(=NC3CC3)SC2)c(C)n1-c1ccccc1F,< 260 nM
5,Cn1nnnc1Sc1ncnc2scc(-c3cccc(S(C)(=O)=O)c3)c12,10200 nM
6,CC(C)c1cc(C(=O)OCC(=O)N2CCN(C(=O)c3ccco3)CC2)c(O)c(C(C)C)c1,< 260 nM
7,COc1cccc(N2CCN(C(=O)c3ccc(CS(=O)c4ccccc4Cl)o3)CC2)c1 (stereo not drawn),< 260 nM
8,COc1ccccc1C(=O)Nc1nc2ccccc2[nH]1,12300 nM
9,O=C(CSc1ncccc1-c1nc2ccccc2[nH]1)N1CCc2ccccc21,< 260 nM
10,CCCC(=O)NC1=C(Cl)C(=O)c2ccccc2C1=O,< 260 nM
11,O=C(Nc1cccc(-c2ccc(N3CCCCC3)nn2)c1)C(F)(F)F,< 260 nM
12,CN1c2ccc(-c3cccc(F)c3)cc2[C@@H]2[C@@H](CCN2C(=O)Cc2ccccc2)[C@@H]1CO,479 nM
13,CCOc1ccc(C(=O)C(CCC(CN(C)C)C(=O)c2ccc(OCC)cc2)CN(C)C)cc1 (stereo not drawn),< 260 nM
14,O=C(NCc1cc(C(F)(F)F)ccc1Cl)c1cccc2c1C(=O)c1ccc(N3CCC(N4CCCCC4)CC3)cc1S2(=O)=O,< 260 nM
15,C[C@H](CO)N1C[C@H](C)[C@@H](CN(C)S(=O)(=O)c2ccc(Cl)cc2)OCCCC[C@H](C)Oc2ccc(NS(=O)(=O)c3ccc(Cl)cc3)cc2C1=O,< 260 nM
16,C[C@@H]1CN([C@H](C)CO)C(=O)c2cc(NS(=O)(=O)c3ccc(Cl)cc3)ccc2O[C@@H](C)CCCCO[C@@H]1CN(C)Cc1ccccc1,< 260 nM
17,COc1ccc(F)cc1-c1cc(NC=O)c2ncc(-c3cc(OC)c(OC)c(OC)c3)n2c1,< 260 nM
18,C=C(C)c1cccc(C(C)(C)NC(=O)N2CCN(c3ccccc3OC)CC2)c1,< 260 nM
19,Cc1cccc(N(Cc2cc(=O)[nH]c3ccccc23)C(=O)CCl)c1,< 260 nM
20,Cc1nnc(N/N=C/c2cc(C)n(-c3ccc(F)cc3)c2C)n1N,8360 nM
21,CCOc1ccc(-n2c(=S)sc3c(=O)[nH]c(SCC(=O)NCC4CCCO4)nc32)cc1 (stereo not drawn),< 260 nM
22,CCCC(=O)NC(c1ccc(C(C)C)cc1)c1ccc2cccnc2c1O (stereo not drawn),< 260 nM
23,Cc1cc(C(C)(C)C)cc(C)c1Cn1c2[n+](c3ccc(C(F)(F)F)cc31)CCCCC2,< 260 nM
24,O=c1cc(-c2ccccc2)oc2ccc3ccccc3c12,< 260 nM

row,Structure (SMILES),AC50
1,CSC(=Nc1ccccc1)N=C(SCc1ccccc1)N(C)C,< 260 nM
2,Cn1c(CCN2CCCC2)nc2cc(NS(=O)(=O)c3ccccc3)ccc21,< 260 nM
3,Cc1nc(Nc2nc(CSc3nc4ccccc4[nH]3)cc(=O)[nH]2)nc2ccccc12,< 260 nM
4,COc1cccc(S(=O)(=O)NCC(=O)Nc2ccc(C(C)(C)C)cc2)c1,< 260 nM
5,C[C@@H]1CN([C@H](C)CO)S(=O)(=O)c2ccc(C#CC3CCCC3)cc2O[C@@H]1CN(C)C(=O)Cc1ccncc1,< 260 nM
6,CCOc1ccc2nc(N/C(N)=N/C(=S)Nc3ccc(C)c(C)c3)nc(C)c2c1,< 260 nM
7,O=C(CCC(=O)c1ccccc1)NCCc1c[nH]c2ccccc12,< 260 nM
8,CC(C)CCCCCCCCCCCCC(=O)NCC(=O)NC1C(C)OC(Nc2ncnc3nc[nH]c23)C(O)C1O (stereo not drawn),275 nM
9,COc1ccc(-n2nc3c(N4CCC(C(=O)NCc5cccc(C)c5)CC4)nnc(C)c3c2C)cc1,< 260 nM
10,O=C(O)c1cccc(COc2ccc3c(c2)CCC3)c1,< 260 nM
11,CCOC(=O)c1c(-c2ccc(F)cc2)csc1NC(=O)CN1C(=O)NC2(CCCCC2C)C1=O (stereo not drawn),12400 nM
12,COc1cc(-c2cnc3c(NC=O)cc(-c4ccccc4)cn23)cc(OC)c1OC,< 260 nM
13,O=C(C(=O)N(Cc1ccccc1)Cc1ccccc1)c1c(-c2ccccc2)[nH]c2ccccc12,< 260 nM
14,COc1cc(/C=N/O)ccc1OCc1ccc(C(=O)O)cc1,12800 nM
15,COc1ccc2c(COC(=O)CNC(=O)C34CC5CC(CC(C5)C3)C4)cc(=O)oc2c1,< 260 nM
16,Cc1ccc2c(c1)c1c3n2CCN(CC(N)=O)C3CCC1 (stereo not drawn),12300 nM
17,COc1cc(OC)cc(C(=O)NCC(=O)OCC(=O)c2cc(C)n(Cc3ccco3)c2C)c1,< 260 nM
18,Cc1cc(C)c2c(N)c(C(=O)Nc3ncc(C)s3)sc2n1,1010 nM
19,Oc1cccc2cc(Nc3ccccc3)cnc12,< 260 nM
20,COc1ccc(C2=NNC(=Nc3cc(S(=O)(=O)N(C)C)ccc3C)SC2)c(OC)c1,< 260 nM
21,Cc1ccc(S(=O)(=O)CC(CN2CCCCC2)N2CCCCC2)cc1 (stereo not drawn),< 260 nM
22,C[C@@H]1CCCCO[C@H](CN(C)C(=O)C2CCCCC2)[C@@H](C)CN([C@@H](C)CO)C(=O)c2cc(NC(=O)Nc3ccc(F)cc3)ccc2O1,< 260 nM
23,N#Cc1ccc(-c2ccc(C3[C@@H]4CN(C(=O)C5CC5)C[C@H]3N4)cc2)cc1 (stereo partly drawn),< 260 nM
24,COc1ccc(Cn2cc3c(-c4ccc(F)cc4)nnc-3c3cc(OC)c(OC)cc32)cc1,21300 nM
